# Assay results: ChEMBL document CHEMBL5724914, “Linking interpersonal differences in gut microbiota composition and drug biotransformation activity” (2024)
# Tests used:
# [1] = (§1) The drug is tested on Z-019 corresponding to rat gut metagenome with ENA study accession number: PRJEB37062 and ENA sample accession number: ERS12561818 for biotransformation under anaerobic condition. The drug concentrations were measured over 9 timepoints collected between 0 and 24 hours of incubation by liquid-chromatography-coupled mass spectrometry (LC–MS); details: 2 µM
# [2] = as §1, with “Z-027” for “Z-019”, “to” for “to rat gut”, “ERS12561826” for “ERS12561818”; details: 2 µM
# [3] = human gut metagenome, 24 h, 2 µM
# [4] = as §1, with “on WLS-098” for “on Z-019”, “to human” for “to rat”, “number: ERS12561754” for “number: ERS12561818”; details: 2 µM
# [5] = human gut metagenome, 24 h, 2 µM; remark: listed apart in the source
# [6] = as §1, with “on Z-002” for “on Z-019”, “to rabbit” for “to rat”, “number: ERS12561802” for “number: ERS12561818”; details: 2 µM
# [7] = as §1, with “Z-021” for “Z-019”, “to” for “to rat gut”, “ERS12561820” for “ERS12561818”; details: 2 µM
# [8] = as §1, with “on WLS-090” for “on Z-019”, “to human” for “to rat”, “number: ERS12561753” for “number: ERS12561818”; details: 2 µM
# [9] = human gut metagenome, 24 h, 2 µM; remark: listed apart in the source
# Further: call rule not given here.
smiles,measurement,setting,value
CCCc1nc(C(C)(C)O)c(C(=O)OCc2oc(=O)oc2C)n1Cc1ccc(-c2ccccc2-c2nnn[nH]2)cc1 [OLMESARTAN MEDOXOMIL],Bacterial Biotransformation,[1],Compound NOT metabolized
same,Bacterial Biotransformation,[2],Compound NOT metabolized
same,Bacterial Biotransformation,[3],Compound metabolized
same,Bacterial Biotransformation,[4],Compound NOT metabolized
same,Bacterial Biotransformation,[5],Compound metabolized
same,Bacterial Biotransformation,[6],Compound metabolized
same,Bacterial Biotransformation,[7],Compound metabolized
same,Bacterial Biotransformation,[8],Compound NOT metabolized
same,Bacterial Biotransformation,[9],Compound metabolized
NC(=O)N1c2ccccc2CC(=O)c2ccccc21 [OXCARBAZEPINE],Bacterial Biotransformation,[1],Compound NOT metabolized
same,Bacterial Biotransformation,[2],Compound NOT metabolized
same,Bacterial Biotransformation,[3],Compound metabolized
same,Bacterial Biotransformation,[4],Compound NOT metabolized
same,Bacterial Biotransformation,[5],Compound NOT metabolized
same,Bacterial Biotransformation,[6],Compound metabolized
same,Bacterial Biotransformation,[7],Compound NOT metabolized
same,Bacterial Biotransformation,[8],Compound NOT metabolized
same,Bacterial Biotransformation,[9],Compound NOT metabolized
CCN(CC)CC#CCOC(=O)C(O)(c1ccccc1)C1CCCCC1.Cl (stereo unspecified) [OXYBUTYNIN CHLORIDE],Bacterial Biotransformation,[1],Compound NOT metabolized
same,Bacterial Biotransformation,[2],Compound NOT metabolized
same,Bacterial Biotransformation,[3],Compound metabolized
same,Bacterial Biotransformation,[4],Compound metabolized
same,Bacterial Biotransformation,[5],Compound metabolized
same,Bacterial Biotransformation,[6],Compound metabolized
same,Bacterial Biotransformation,[7],Compound metabolized
same,Bacterial Biotransformation,[8],Compound metabolized
same,Bacterial Biotransformation,[9],Compound metabolized
Fc1ccc([C@@H]2CCNC[C@H]2COc2ccc3c(c2)OCO3)cc1 [PAROXETINE],Bacterial Biotransformation,[1],Compound NOT metabolized
same,Bacterial Biotransformation,[2],Compound NOT metabolized
same,Bacterial Biotransformation,[3],Compound metabolized
same,Bacterial Biotransformation,[4],Compound metabolized
same,Bacterial Biotransformation,[5],Compound metabolized
same,Bacterial Biotransformation,[6],Compound NOT metabolized
same,Bacterial Biotransformation,[7],Compound metabolized
same,Bacterial Biotransformation,[8],Compound metabolized
same,Bacterial Biotransformation,[9],Compound NOT metabolized
O=c1[nH]c2ccccc2n1C1CCN(CCCC(c2ccc(F)cc2)c2ccc(F)cc2)CC1 [PIMOZIDE],Bacterial Biotransformation,[1],Compound NOT metabolized
same,Bacterial Biotransformation,[2],Compound NOT metabolized
same,Bacterial Biotransformation,[3],Compound metabolized
same,Bacterial Biotransformation,[4],Compound metabolized
same,Bacterial Biotransformation,[5],Compound metabolized
same,Bacterial Biotransformation,[6],Compound NOT metabolized
same,Bacterial Biotransformation,[7],Compound metabolized
same,Bacterial Biotransformation,[8],Compound metabolized
same,Bacterial Biotransformation,[9],Compound metabolized
COc1cc2nc(N3CCN(C(=O)c4ccco4)CC3)nc(N)c2cc1OC [PRAZOSIN],Bacterial Biotransformation,[1],Compound NOT metabolized
same,Bacterial Biotransformation,[2],Compound NOT metabolized
same,Bacterial Biotransformation,[3],Compound NOT metabolized
same,Bacterial Biotransformation,[4],Compound metabolized
same,Bacterial Biotransformation,[5],Compound metabolized
same,Bacterial Biotransformation,[6],Compound NOT metabolized
same,Bacterial Biotransformation,[7],Compound NOT metabolized
same,Bacterial Biotransformation,[8],Compound metabolized
same,Bacterial Biotransformation,[9],Compound NOT metabolized
CS(=O)(=O)O.OC(CCN1CCCCC1)(c1ccccc1)c1ccccc1 [PRIDINOL METHANESULFONATE],Bacterial Biotransformation,[1],Compound NOT metabolized
same,Bacterial Biotransformation,[2],Compound NOT metabolized
same,Bacterial Biotransformation,[3],Compound NOT metabolized
same,Bacterial Biotransformation,[4],Compound metabolized
same,Bacterial Biotransformation,[5],Compound metabolized
same,Bacterial Biotransformation,[6],Compound metabolized
same,Bacterial Biotransformation,[7],Compound NOT metabolized
same,Bacterial Biotransformation,[8],Compound metabolized
same,Bacterial Biotransformation,[9],Compound NOT metabolized
CC(CN1c2ccccc2Sc2ccccc21)N(C)C (stereo unspecified) [PROMETHAZINE],Bacterial Biotransformation,[1],Compound NOT metabolized
same,Bacterial Biotransformation,[2],Compound NOT metabolized
same,Bacterial Biotransformation,[3],Compound metabolized
same,Bacterial Biotransformation,[4],Compound metabolized
same,Bacterial Biotransformation,[5],Compound NOT metabolized
same,Bacterial Biotransformation,[6],Compound NOT metabolized
same,Bacterial Biotransformation,[7],Compound NOT metabolized
same,Bacterial Biotransformation,[8],Compound metabolized
same,Bacterial Biotransformation,[9],Compound NOT metabolized
OCCOCCN1CCN(C2=Nc3ccccc3Sc3ccccc32)CC1 [QUETIAPINE],Bacterial Biotransformation,[1],Compound NOT metabolized
same,Bacterial Biotransformation,[2],Compound NOT metabolized
same,Bacterial Biotransformation,[3],Compound metabolized
same,Bacterial Biotransformation,[4],Compound metabolized
same,Bacterial Biotransformation,[5],Compound metabolized
same,Bacterial Biotransformation,[6],Compound metabolized
same,Bacterial Biotransformation,[7],Compound NOT metabolized
same,Bacterial Biotransformation,[8],Compound metabolized
same,Bacterial Biotransformation,[9],Compound NOT metabolized
CCC(=O)NCC[C@@H]1CCc2ccc3c(c21)CCO3 [RAMELTEON],Bacterial Biotransformation,[1],Compound NOT metabolized
same,Bacterial Biotransformation,[2],Compound NOT metabolized
same,Bacterial Biotransformation,[3],Compound metabolized
same,Bacterial Biotransformation,[4],Compound metabolized
same,Bacterial Biotransformation,[5],Compound metabolized
same,Bacterial Biotransformation,[6],Compound metabolized
same,Bacterial Biotransformation,[7],Compound metabolized
same,Bacterial Biotransformation,[8],Compound metabolized
same,Bacterial Biotransformation,[9],Compound NOT metabolized
CNC(=C[N+](=O)[O-])NCCSCc1ccc(CN(C)C)o1 [RANITIDINE],Bacterial Biotransformation,[1],Compound metabolized
same,Bacterial Biotransformation,[2],Compound NOT metabolized
same,Bacterial Biotransformation,[3],Compound NOT metabolized
same,Bacterial Biotransformation,[4],Compound NOT metabolized
same,Bacterial Biotransformation,[5],Compound metabolized
same,Bacterial Biotransformation,[6],Compound metabolized
same,Bacterial Biotransformation,[7],Compound NOT metabolized
same,Bacterial Biotransformation,[8],Compound NOT metabolized
same,Bacterial Biotransformation,[9],Compound metabolized
COC(=O)[C@H]1[C@H]2C[C@@H]3c4[nH]c5cc(OC)ccc5c4CCN3C[C@H]2C[C@@H](OC(=O)c2cc(OC)c(OC)c(OC)c2)[C@@H]1OC [RESERPINE],Bacterial Biotransformation,[1],Compound NOT metabolized
same,Bacterial Biotransformation,[2],Compound NOT metabolized
same,Bacterial Biotransformation,[3],Compound metabolized
same,Bacterial Biotransformation,[4],Compound metabolized
same,Bacterial Biotransformation,[5],Compound metabolized
same,Bacterial Biotransformation,[6],Compound NOT metabolized
same,Bacterial Biotransformation,[7],Compound metabolized
same,Bacterial Biotransformation,[8],Compound metabolized
same,Bacterial Biotransformation,[9],Compound NOT metabolized
Nc1nc2ccc(OC(F)(F)F)cc2s1 [RILUZOLE],Bacterial Biotransformation,[1],Compound NOT metabolized
same,Bacterial Biotransformation,[2],Compound NOT metabolized
same,Bacterial Biotransformation,[3],Compound NOT metabolized
same,Bacterial Biotransformation,[4],Compound metabolized
same,Bacterial Biotransformation,[5],Compound metabolized
same,Bacterial Biotransformation,[6],Compound metabolized
same,Bacterial Biotransformation,[7],Compound metabolized
same,Bacterial Biotransformation,[8],Compound metabolized
same,Bacterial Biotransformation,[9],Compound metabolized
CC(C)c1nc(CN(C)C(=O)N[C@H](C(=O)N[C@@H](Cc2ccccc2)C[C@H](O)[C@H](Cc2ccccc2)NC(=O)OCc2cncs2)C(C)C)cs1 [RITONAVIR],Bacterial Biotransformation,[1],Compound NOT metabolized
same,Bacterial Biotransformation,[2],Compound metabolized
same,Bacterial Biotransformation,[3],Compound metabolized
same,Bacterial Biotransformation,[4],Compound metabolized
same,Bacterial Biotransformation,[5],Compound metabolized
same,Bacterial Biotransformation,[6],Compound metabolized
same,Bacterial Biotransformation,[7],Compound NOT metabolized
same,Bacterial Biotransformation,[8],Compound metabolized
same,Bacterial Biotransformation,[9],Compound metabolized
CC(C)NCC(O)c1ccc(NS(C)(=O)=O)cc1 (stereo unspecified) [SOTALOL],Bacterial Biotransformation,[1],Compound NOT metabolized
same,Bacterial Biotransformation,[2],Compound NOT metabolized
same,Bacterial Biotransformation,[3],Compound NOT metabolized
same,Bacterial Biotransformation,[4],Compound NOT metabolized
same,Bacterial Biotransformation,[5],Compound NOT metabolized
same,Bacterial Biotransformation,[6],Compound NOT metabolized
same,Bacterial Biotransformation,[7],Compound NOT metabolized
same,Bacterial Biotransformation,[8],Compound metabolized
same,Bacterial Biotransformation,[9],Compound NOT metabolized
CCN1CCCC1CNC(=O)c1cc(S(N)(=O)=O)ccc1OC (stereo unspecified) [SULPIRIDE],Bacterial Biotransformation,[1],Compound NOT metabolized
same,Bacterial Biotransformation,[2],Compound NOT metabolized
same,Bacterial Biotransformation,[3],Compound NOT metabolized
same,Bacterial Biotransformation,[4],Compound metabolized
same,Bacterial Biotransformation,[5],Compound NOT metabolized
same,Bacterial Biotransformation,[6],Compound metabolized
same,Bacterial Biotransformation,[7],Compound NOT metabolized
same,Bacterial Biotransformation,[8],Compound metabolized
same,Bacterial Biotransformation,[9],Compound NOT metabolized
CNS(=O)(=O)Cc1ccc2[nH]cc(CCN(C)C)c2c1.O=C(O)CCC(=O)O [SUMATRIPTAN SUCCINATE],Bacterial Biotransformation,[1],Compound NOT metabolized
same,Bacterial Biotransformation,[2],Compound NOT metabolized
same,Bacterial Biotransformation,[3],Compound NOT metabolized
same,Bacterial Biotransformation,[4],Compound metabolized
same,Bacterial Biotransformation,[5],Compound metabolized
same,Bacterial Biotransformation,[6],Compound metabolized
same,Bacterial Biotransformation,[7],Compound NOT metabolized
same,Bacterial Biotransformation,[8],Compound metabolized
same,Bacterial Biotransformation,[9],Compound NOT metabolized
Nc1c2c(nc3ccccc13)CCCC2 [TACRINE],Bacterial Biotransformation,[1],Compound NOT metabolized
same,Bacterial Biotransformation,[2],Compound NOT metabolized
same,Bacterial Biotransformation,[3],Compound NOT metabolized
same,Bacterial Biotransformation,[4],Compound metabolized
same,Bacterial Biotransformation,[5],Compound metabolized
same,Bacterial Biotransformation,[6],Compound metabolized
same,Bacterial Biotransformation,[7],Compound NOT metabolized
same,Bacterial Biotransformation,[8],Compound metabolized
same,Bacterial Biotransformation,[9],Compound NOT metabolized
Cc1ccc(S(=O)(=O)NC(=O)NN2CCCCCC2)cc1 [TOLAZAMIDE],Bacterial Biotransformation,[1],Compound NOT metabolized
same,Bacterial Biotransformation,[2],Compound NOT metabolized
same,Bacterial Biotransformation,[3],Compound metabolized
same,Bacterial Biotransformation,[4],Compound metabolized
same,Bacterial Biotransformation,[5],Compound metabolized
same,Bacterial Biotransformation,[6],Compound metabolized
same,Bacterial Biotransformation,[7],Compound metabolized
same,Bacterial Biotransformation,[8],Compound metabolized
same,Bacterial Biotransformation,[9],Compound metabolized
